Assays:
Format in all cases: in vivo
Setaria viridis [1] = experiment: Pre-emergence herbicidal action against SETVI
Text: (§1) Pre-Emergence Herbicidal Action Against Harmful Plants
(§2) Seeds of monocotyledonous and dicotyledonous weed plants and crop plants are laid out in wood-fiber pots in sandy loam and covered with soil. The compounds of the invention, formulated in the form of wettable powders (WP) or as emulsion concentrates (EC), are then applied to the surface of the covering soil in the form of an aqueous suspension or emulsion at a water application rate equating to 600 to 800 I/ha, with addition of 0.2% wetting agent. After the treatment, the pots are placed in a greenhouse and kept under good growth conditions for the trial plants. The damage to the test plants is scored visually after a test period of 3 weeks by comparison with untreated controls (herbicidal activity in percent (%): 100% activity=the plants have died, 0% activity=like control plants). For example, compounds no. 1-001, 1-002, 1-003, 1-004, 1-011, 1-012, 1-021, 1-022, 1-031, 1-032, 1-041, 1-042 and 1-044 at an application rate of 320 g/ha each have at least 80% efficacy against Echinocloa crusgalli, Abutilon theophrasti, Amaranthus retroflexus and Matricaria inodora.

Stellaria media [2] = experiment: Pre-emergence herbicidal action against STEME
Text: as §1, §2

Alopecurus myosuroides = experiment: Post-emergence herbicidal action against ALOMY
Description: (§3) Post-Emergence Herbicidal Action Against Harmful Plants Seeds of monocotyledonous and dicotyledonous weed and crop plants are laid out in sandy loam in wood-fiber pots, covered with soil and cultivated in a greenhouse under good growth conditions. 2 to 3 weeks after sowing, the test plants are treated at the one-leaf stage. The compounds of the invention, formulated in the form of wettable powders (WP) or as emulsion concentrates (EC), are then sprayed onto the green parts of the plants in the form of an aqueous suspension or emulsion at a water application rate equating to 600 to 800 I/ha, with addition of 0.2% wetting agent. After the test plants have been left to stand in the greenhouse under optimal growth conditions for about 3 weeks, the action of the preparations is assessed visually in comparison to untreated controls (herbicidal action in percent (%): 100% activity=the plants have died, 0% activity=like control plants).

Avena fatua [3] = experiment: Post-emergence herbicidal action against AVEFA
Description: as §3

Stellaria media [4] = experiment: Post-emergence herbicidal action against STEME; conditions: dosage 5 g/ha
Description: as §3

Setaria viridis [5] = experiment: Post-emergence herbicidal action against SETVI; conditions: dosage 5 g/ha
Description: as §3

Polygonum convolvulus [6] = experiment: Post-emergence herbicidal action against POLCO
Description: as §3

Avena fatua [7] = experiment: Pre-emergence herbicidal action against AVEFA; conditions: dosage 320 g/ha
Text: as §1, §2

Pharbitis purpureum = experiment: Pre-emergence herbicidal action against PHBPU; conditions: dosage 320 g/ha
Text: as §1, §2

Polygonum convolvulus [8] = experiment: Pre-emergence herbicidal action against POLCO; conditions: dosage 320 g/ha
Text: as §1, §2

COSc1c(C)ccc(C(=O)Nc2nnnn2C)c1I
Activity against SETVI (Setaria viridis [1]; dosage 320 g/ha): 30%
Activity against STEME (Stellaria media [2]; dosage 320 g/ha): 70%

COSc1c(C)ccc(C(=O)Nc2nnnn2C)c1OC
Activity against SETVI (Setaria viridis [1]; dosage 320 g/ha): 40%
Activity against STEME (Stellaria media [2]; dosage 320 g/ha): 60%

COSc1c(C=O)ccc(C(=O)Nc2nnnn2C)c1C
Activity against SETVI (Setaria viridis [1]; dosage 320 g/ha): 0%
Activity against STEME (Stellaria media [2]; dosage 320 g/ha): 0%

CCOSc1c(C)ccc(C(=O)Nc2nnnn2C)c1C
Activity against ALOMY (Alopecurus myosuroides; dosage 80 g/ha): 90%
Activity against AVEFA (Avena fatua [3]; dosage 80 g/ha): 100%

CCc1ccc(C(=O)Nc2nnnn2C)c(C)c1SOC
Activity against STEME (Stellaria media [4]): 100%
Activity against SETVI (Setaria viridis [5]): 100%

COSc1c(C(C)C)ccc(C(=O)Nc2nnnn2C)c1C
Activity against ALOMY (Alopecurus myosuroides; dosage 5 g/ha): 60%
Activity against AVEFA (Avena fatua [3]; dosage 5 g/ha): 40%

Cc1c(C(=O)Nc2nnnn2C)ccc(C(C)C)c1S(C)(=O)=O
Activity against ALOMY (Alopecurus myosuroides; Table S, dosage 5 g/ha): 60%
Activity against AVEFA (Avena fatua [3]; Table S, dosage 5 g/ha): 30%

Cc1c(C(=O)Nc2nnnn2C)ccc(I)c1S(C)(=O)=O
Activity against ALOMY (Alopecurus myosuroides; Table S, dosage 5 g/ha): 20%
Activity against AVEFA (Avena fatua [3]; Table S, dosage 5 g/ha): 0%

Cc1c(C(=O)Nc2nnnn2C)ccc(C(F)(F)F)c1S(C)(=O)=O
Activity against ALOMY (Alopecurus myosuroides; Table S, dosage 5 g/ha): 30%
Activity against AVEFA (Avena fatua [3]; Table S, dosage 5 g/ha): 0%

CCc1c(C(=O)Nc2nnnn2C)ccc(Cl)c1SOC
Activity against POLCO (Polygonum convolvulus [6]; Table V, dosage 5 g/ha): 20%

CCc1c(C(=O)Nc2nnnn2C)ccc(Br)c1S(C)(=O)=O
Activity against POLCO (Polygonum convolvulus [6]; Table W, dosage 20 g/ha): 40%

CCOSc1c(C(F)(F)F)ccc(C(=O)Nc2nnnn2C)c1CC
Activity against POLCO (Polygonum convolvulus [6]; Table X, dosage 20 g/ha): 20%

CCc1ccc(C(=O)Nc2nnnn2C)c(CC)c1S(=O)(=O)CC
Activity against POLCO (Polygonum convolvulus [6]; Table Y, dosage 20 g/ha): 100%

CCc1c(C(=O)Nc2nnnn2C)ccc(C(F)(F)F)c1S(=O)(=O)CC
Activity against POLCO (Polygonum convolvulus [6]; Table Y, dosage 20 g/ha): 80%

Cc1ccc(C(=O)Nc2nnnn2C)c(C)c1[S+](C)[O-] (centres unmarked) [1-001, 2,4-Dimethyl-3-(methylsulfinyl)-N-(1-methyl-1H-tetrazol-5-yl)benzamide]
Activity against SETVI (Setaria viridis [1]; dosage 320 g/ha): 100%
Activity against STEME (Stellaria media [2]; dosage 320 g/ha): 90%

CCS(=O)(=O)c1c(C)ccc(C(=O)Nc2nnnn2C)c1C [1-004]
Activity against AVEFA (Avena fatua [7]): 90%
Activity against PHBPU (Pharbitis purpureum): 80%

CCc1ccc(C(=O)Nc2nnnn2C)c(C)c1S(C)(=O)=O [1-012]
Activity against SETVI (Setaria viridis [1]; dosage 80 g/ha): 100%
Activity against STEME (Stellaria media [2]; dosage 80 g/ha): 90%

CCc1c(C(=O)Nc2nnnn2C)ccc(C)c1S(C)(=O)=O [1-032]
Activity against AVEFA (Avena fatua [7]): 80%
Activity against PHBPU (Pharbitis purpureum): 80%

CCc1ccc(C(=O)Nc2nnnn2C)c(CC)c1[S+](C)[O-] (centres unmarked) [1-041]
Activity against PHBPU (Pharbitis purpureum): 80%
Activity against POLCO (Polygonum convolvulus [8]): 80%

CCc1ccc(C(=O)Nc2nnnn2C)c(CC)c1S(C)(=O)=O [1-042]
Activity against PHBPU (Pharbitis purpureum): 100%
Activity against POLCO (Polygonum convolvulus [8]): 100%

Cc1c(C(=O)Nc2nnnn2C)cccc1S(C)(=O)=O [4-080]
Activity against SETVI (Setaria viridis [1]; dosage 80 g/ha): 20%
Activity against STEME (Stellaria media [2]; dosage 80 g/ha): 50%

CCc1c(C(=O)Nc2nnnn2C)ccc(Cl)c1S(C)(=O)=O [4-192, reference compound]
Activity against PHBPU (Pharbitis purpureum): 80%
Activity against POLCO (Polygonum convolvulus [8]): 60%

COc1ccc(C(=O)Nc2nnnn2C)c(C)c1S(C)(=O)=O [4-439]
Activity against AVEFA (Avena fatua [7]): 50%
Activity against SETVI (Setaria viridis [1]; dosage 80 g/ha): 0%
Activity against PHBPU (Pharbitis purpureum): 60%
Activity against STEME (Stellaria media [2]; dosage 80 g/ha): 70%

CCc1c(C(=O)Nc2nnnn2C)ccc(Br)c1SOC [4-503, reference compound]
Activity against PHBPU (Pharbitis purpureum): 50%
Activity against POLCO (Polygonum convolvulus [8]): 60%

Cc1ccc(C(=O)Nc2nnnn2C)c(I)c1S(C)(=O)=O [4-791]
Activity against AVEFA (Avena fatua [7]): 0%
Activity against PHBPU (Pharbitis purpureum): 30%

CCS(=O)(=O)c1c(C)ccc(C(=O)Nc2nnnn2C)c1I [4-794]
Activity against AVEFA (Avena fatua [7]): 10%
Activity against PHBPU (Pharbitis purpureum): 60%

COSc1c(C)ccc(C(=O)Nc2nnnn2C)c1[N+](=O)[O-] [4-796]
Activity against SETVI (Setaria viridis [1]; dosage 320 g/ha): 0%
Activity against STEME (Stellaria media [2]; dosage 320 g/ha): 50%

Cc1ccc(C(=O)Nc2nnnn2C)c([N+](=O)[O-])c1S(C)(=O)=O [4-797]
Activity against AVEFA (Avena fatua [7]): 0%
Activity against PHBPU (Pharbitis purpureum): 0%
